Laboratory results as given in ChEMBL document CHEMBL2074426 (Mol Pharmacol, 2001).

Columns and labels:
Assay type in all cases: functional, cell-based
[1] = biological target: ATP-dependent translocase ABCB1 (Homo sapiens, UniProt P08183); test: TP_TRANSPORTER: transepithelial transport (basal to apical) in MDR1-expressing LLC-PK1 cells; conditions: pig
[2] = biological target: ATP-dependent translocase ABCB1 (Mus musculus, UniProt P21447); test: TP_TRANSPORTER: transepithelial transport (basal to apical) in mdr1a-expressing LLC-PK1 cell; conditions: pig
ATP-dependent translocase ABCB1 (Mus musculus, UniProt P21447), sequence (P21447 whole entry): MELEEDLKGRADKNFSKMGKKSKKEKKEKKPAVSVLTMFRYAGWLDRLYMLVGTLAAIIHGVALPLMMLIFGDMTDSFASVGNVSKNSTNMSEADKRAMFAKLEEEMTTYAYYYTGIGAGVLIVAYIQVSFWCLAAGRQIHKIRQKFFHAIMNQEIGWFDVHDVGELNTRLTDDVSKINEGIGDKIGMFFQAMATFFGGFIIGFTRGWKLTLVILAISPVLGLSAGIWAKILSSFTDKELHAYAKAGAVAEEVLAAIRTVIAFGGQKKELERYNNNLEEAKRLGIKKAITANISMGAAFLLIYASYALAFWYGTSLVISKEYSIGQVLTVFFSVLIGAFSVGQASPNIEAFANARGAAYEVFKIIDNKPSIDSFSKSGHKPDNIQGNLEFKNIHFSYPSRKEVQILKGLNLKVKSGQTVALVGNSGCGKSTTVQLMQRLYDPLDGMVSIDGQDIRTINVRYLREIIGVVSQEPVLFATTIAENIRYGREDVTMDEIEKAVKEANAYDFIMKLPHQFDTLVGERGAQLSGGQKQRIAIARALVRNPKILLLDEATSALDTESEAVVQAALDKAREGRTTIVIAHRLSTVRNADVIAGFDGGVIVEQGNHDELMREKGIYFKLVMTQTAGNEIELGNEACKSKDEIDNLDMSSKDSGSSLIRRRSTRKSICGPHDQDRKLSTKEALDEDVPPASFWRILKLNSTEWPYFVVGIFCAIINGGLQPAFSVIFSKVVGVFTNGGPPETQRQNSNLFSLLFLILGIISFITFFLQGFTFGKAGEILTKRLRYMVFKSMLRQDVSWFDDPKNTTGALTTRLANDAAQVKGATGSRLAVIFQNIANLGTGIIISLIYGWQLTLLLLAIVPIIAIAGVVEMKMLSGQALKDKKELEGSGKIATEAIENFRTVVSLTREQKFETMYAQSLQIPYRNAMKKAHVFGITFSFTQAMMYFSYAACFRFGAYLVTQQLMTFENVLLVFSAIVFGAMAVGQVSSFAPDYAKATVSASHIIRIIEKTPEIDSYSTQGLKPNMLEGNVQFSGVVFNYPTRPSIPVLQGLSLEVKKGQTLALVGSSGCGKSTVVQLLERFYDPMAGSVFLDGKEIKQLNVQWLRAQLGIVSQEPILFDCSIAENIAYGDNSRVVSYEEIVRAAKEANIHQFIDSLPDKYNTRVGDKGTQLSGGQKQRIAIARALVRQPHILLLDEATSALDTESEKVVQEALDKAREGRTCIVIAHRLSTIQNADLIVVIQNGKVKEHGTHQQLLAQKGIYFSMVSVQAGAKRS

[3] = biological target: ATP-dependent translocase ABCB1 (Mus musculus, UniProt P06795); test: TP_TRANSPORTER: transepithelial transport (basal to apical) in mdr1b-expressing LLC-PK1 cell
ATP-dependent translocase ABCB1 (Mus musculus, UniProt P06795), sequence (P06795 whole entry): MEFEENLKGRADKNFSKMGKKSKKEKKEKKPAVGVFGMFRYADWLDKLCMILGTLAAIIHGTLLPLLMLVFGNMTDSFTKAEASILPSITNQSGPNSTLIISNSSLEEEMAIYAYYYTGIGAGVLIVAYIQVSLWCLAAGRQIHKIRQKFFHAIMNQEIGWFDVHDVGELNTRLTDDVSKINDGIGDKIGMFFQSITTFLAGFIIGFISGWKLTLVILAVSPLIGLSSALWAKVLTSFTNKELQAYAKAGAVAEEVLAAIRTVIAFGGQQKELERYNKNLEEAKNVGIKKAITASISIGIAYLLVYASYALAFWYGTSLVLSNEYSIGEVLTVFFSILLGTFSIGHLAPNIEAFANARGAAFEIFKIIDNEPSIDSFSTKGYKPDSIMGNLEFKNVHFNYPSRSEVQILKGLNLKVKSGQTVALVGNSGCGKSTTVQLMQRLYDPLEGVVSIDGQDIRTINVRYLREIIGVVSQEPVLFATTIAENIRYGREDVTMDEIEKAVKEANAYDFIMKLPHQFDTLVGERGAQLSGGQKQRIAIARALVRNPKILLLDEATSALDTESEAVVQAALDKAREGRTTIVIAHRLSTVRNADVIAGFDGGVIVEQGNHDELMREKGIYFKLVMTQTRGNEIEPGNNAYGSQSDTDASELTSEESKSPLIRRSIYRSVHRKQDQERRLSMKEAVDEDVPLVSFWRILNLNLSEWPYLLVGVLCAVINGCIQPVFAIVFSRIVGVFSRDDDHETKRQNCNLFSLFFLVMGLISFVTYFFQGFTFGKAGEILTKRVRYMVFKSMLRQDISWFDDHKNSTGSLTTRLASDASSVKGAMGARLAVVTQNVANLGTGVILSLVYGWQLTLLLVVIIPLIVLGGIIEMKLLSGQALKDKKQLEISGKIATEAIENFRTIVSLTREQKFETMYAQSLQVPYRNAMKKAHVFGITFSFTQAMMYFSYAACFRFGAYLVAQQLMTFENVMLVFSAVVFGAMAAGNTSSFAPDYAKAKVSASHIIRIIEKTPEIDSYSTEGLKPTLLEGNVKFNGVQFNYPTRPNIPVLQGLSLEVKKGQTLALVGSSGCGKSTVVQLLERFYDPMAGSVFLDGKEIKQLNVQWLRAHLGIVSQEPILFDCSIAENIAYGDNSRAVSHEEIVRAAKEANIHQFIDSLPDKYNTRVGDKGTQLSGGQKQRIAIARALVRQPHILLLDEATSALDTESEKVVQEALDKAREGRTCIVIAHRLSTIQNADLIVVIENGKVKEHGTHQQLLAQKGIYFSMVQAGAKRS

Measured: Activity

ATP-dependent translocase ABCB1 (Homo sapiens, UniProt P08183), sequence (P08183 whole entry): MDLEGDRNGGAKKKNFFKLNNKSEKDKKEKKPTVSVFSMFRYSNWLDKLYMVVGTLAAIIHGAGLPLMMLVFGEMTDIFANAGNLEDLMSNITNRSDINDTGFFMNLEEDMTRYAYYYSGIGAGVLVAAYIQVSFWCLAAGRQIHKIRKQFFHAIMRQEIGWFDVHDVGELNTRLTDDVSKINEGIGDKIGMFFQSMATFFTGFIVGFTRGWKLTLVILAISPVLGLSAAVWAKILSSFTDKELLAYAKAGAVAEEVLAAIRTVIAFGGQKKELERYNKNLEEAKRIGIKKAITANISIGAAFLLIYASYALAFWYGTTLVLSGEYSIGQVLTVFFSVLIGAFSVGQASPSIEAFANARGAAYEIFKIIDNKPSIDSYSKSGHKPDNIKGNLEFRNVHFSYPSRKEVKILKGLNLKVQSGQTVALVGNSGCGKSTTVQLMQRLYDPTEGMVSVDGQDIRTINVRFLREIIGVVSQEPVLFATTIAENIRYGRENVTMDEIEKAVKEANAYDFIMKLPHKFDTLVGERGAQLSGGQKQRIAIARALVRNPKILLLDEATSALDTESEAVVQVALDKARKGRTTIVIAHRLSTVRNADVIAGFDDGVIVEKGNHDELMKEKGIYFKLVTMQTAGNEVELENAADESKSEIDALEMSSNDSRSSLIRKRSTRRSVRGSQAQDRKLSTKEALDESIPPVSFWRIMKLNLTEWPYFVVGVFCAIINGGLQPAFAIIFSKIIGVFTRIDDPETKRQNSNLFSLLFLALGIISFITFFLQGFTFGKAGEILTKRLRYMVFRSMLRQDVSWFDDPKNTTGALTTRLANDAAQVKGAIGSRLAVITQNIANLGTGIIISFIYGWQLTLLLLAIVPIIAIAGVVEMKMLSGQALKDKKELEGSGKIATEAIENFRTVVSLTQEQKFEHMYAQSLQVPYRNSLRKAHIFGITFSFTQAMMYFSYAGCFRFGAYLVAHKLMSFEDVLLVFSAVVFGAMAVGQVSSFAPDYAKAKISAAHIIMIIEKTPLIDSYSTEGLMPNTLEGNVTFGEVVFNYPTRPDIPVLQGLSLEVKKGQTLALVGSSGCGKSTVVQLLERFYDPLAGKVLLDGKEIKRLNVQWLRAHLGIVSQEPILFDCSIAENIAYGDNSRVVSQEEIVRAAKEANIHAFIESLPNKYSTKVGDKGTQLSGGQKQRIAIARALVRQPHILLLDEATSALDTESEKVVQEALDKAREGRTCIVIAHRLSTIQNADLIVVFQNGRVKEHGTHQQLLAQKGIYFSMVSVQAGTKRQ

CC(C)(C)NC(=O)[C@@H]1C[C@@H]2CCCC[C@@H]2CN1C[C@@H](O)[C@H](Cc1ccccc1)NC(=O)[C@H](CC(N)=O)NC(=O)c1ccc2ccccc2n1
substrate [+]: all assays above
